From PubChem BioAssay AID434956 (The Scripps Research Institute Molecular Screening Center, 2010)
Active and inactive are the calls of the source. How the calls were made is not given here.

Test system: IEC-6 cytotoxicity, ATP luminescence
Test: IEC-6 epithelial cell viability loss – luminescence, dose response, round 1, cytotoxicity control for KLF5 inhibitor project, late-stage follow-up (AID 434956)

Row | SMILES | IC50
1 | O=C(Cc1ccccc1)Nc1cc2nn(-c3ccccc3)nc2cc1Cl | > 39.8 µM (inactive)
2 | Cc1ccc(-n2nc3ccc(NC(=O)COc4ccc(C)c(C)c4)cc3n2)cc1 | > 39.8 µM (inactive)
3 | Cc1cccc(NC(=O)CCc2nc(-c3ccc(C(C)(C)C)cc3)no2)c1 | > 39.8 µM (inactive)
4 | O=C(Nc1cc2nn(-c3ccccc3)nc2cc1Cl)C1COc2ccccc2C1 (configuration not stated) | > 39.8 µM (inactive)
5 | CC(C)(C)c1ccc(-c2noc(CCC(=O)Nc3ccccn3)n2)cc1 | > 39.8 µM (inactive)
6 | CC(C)(C)c1ccc(-c2noc(CCC(=O)Nc3ccc(N4CCOCC4)nc3)n2)cc1 | > 39.8 µM (inactive)
7 | CC(C)(C)C(=O)Nc1ccc2nn(-c3ccc(F)cc3)nc2c1 | > 39.8 µM (inactive)
8 | COc1ccc(-n2nc3ccc(NC(=O)C(C)(C)C)cc3n2)cc1 | > 39.8 µM (inactive)
9 | Cc1ccc(-n2nc3cc(Cl)c(NC(=O)c4cccnc4)cc3n2)cc1 | 17.8 µM (inactive)
10 | CC(C)C(=O)Nc1ccc2nn(-c3ccc(Cl)cc3)nc2c1 | > 39.8 µM (inactive)
11 | CC(=O)Nc1ccc2nc(Nc3nc4ccc(F)cc4s3)sc2c1 | 14.7 µM (inactive)
12 | CC(C)(C)c1ccc(-c2noc(CCc3nc4ccccc4[nH]3)n2)cc1 | 31.8 µM (inactive)
13 | O=C(COc1ccccc1)Nc1ccc2nn(-c3cccc(Cl)c3)nc2c1 | > 39.8 µM (inactive)
14 | CC(C)(C)c1ccc(-c2noc(CCC(=O)Nc3ccncc3)n2)cc1 | 25.6 µM (inactive)
15 | CC(C)(C)c1ccc(-c2noc(CCC(=O)NCc3ccccc3)n2)cc1 | 24.1 µM (inactive)
16 | CC(C)(C)C(=O)Nc1ccc2nn(-c3ccccc3)nc2c1 | > 39.8 µM (inactive)
17 | CCNC(=O)c1sc(NC(=O)c2ccc3ncsc3c2)nc1C | > 39.8 µM (inactive)
18 | COc1ccc(-n2nc3ccc(NC(=O)C4CCN(S(=O)(=O)c5ccc(Cl)cc5)CC4)cc3n2)cc1 | 31.2 µM (inactive)
19 | CN(C)C(=O)c1ccc2nc(Nc3nc4ccc(F)cc4s3)sc2c1 | 15.7 µM (inactive)

Row | SMILES | IC50
20 | CC(C)(C)c1ccc(-c2noc(CCC(=O)Nc3ccccc3)n2)cc1 | > 39.8 µM (inactive)
21 | CC(C)c1ccc2nc(Nc3nc4ccc(F)cc4s3)sc2c1 | > 39.8 µM (inactive)
22 | CC(=O)c1sc(NC(=O)c2ccc3ncsc3c2)nc1C | > 39.8 µM (inactive)
23 | Nc1cc2nn(-c3ccccc3)nc2cc1Cl | > 39.8 µM (inactive)
24 | CC(C)(C)c1ccc(-c2coc(CCC(=O)Nc3ccccn3)n2)cc1 | > 39.8 µM (inactive)
25 | CCNC(=O)c1ccc2nc(Nc3nc4ccc(F)cc4s3)sc2c1 | 14.7 µM (inactive)
26 | O=C(Nc1cc2nn(-c3ccccc3)nc2cc1Cl)C1CC1 | > 39.8 µM (inactive)
27 | CS(=O)(=O)c1ccc2nc(Nc3nc4ccc(F)cc4s3)sc2c1 | 19.1 µM (inactive)
28 | CCOc1ccc(NC(=O)CCc2nc(-c3ccc(C(C)(C)C)cc3)no2)cc1 | > 39.8 µM (inactive)
29 | CC(NC(=O)c1ccccc1)c1nc(-c2ccc(C(C)(C)C)cc2)no1 (configuration not stated) | 41.4 µM (inactive)
30 | CC1(C)CC(=O)c2sc(NC(=O)c3ccc4ncsc4c3)nc2C1 | > 39.8 µM (inactive)
31 | CC(=O)c1sc(NC(=O)c2ccc3ncsc3c2)nc1-c1ccccc1 | > 39.8 µM (inactive)
32 | COc1ccc(-n2nc3cc(C)c(NC(=O)C(C)C)cc3n2)cc1 | > 39.8 µM (inactive)
33 | Cc1ccc(OCC(=O)Nc2ccc3nn(-c4cccc(C(F)(F)F)c4)nc3c2)cc1C | > 39.8 µM (inactive)
34 | CCOc1ccc2nc(Nc3nc4ccc(F)cc4s3)sc2c1 | > 39.8 µM (inactive)
35 | COc1ccc2nc(Nc3nc4ccc(F)cc4s3)sc2c1 | > 39.8 µM (inactive)
36 | Cc1nc(NC(=O)c2ccc3ncsc3c2)sc1C(=O)N(C)C | > 39.8 µM (inactive)
37 | CC(C)(C)c1ccc(-c2noc(CCCC(=O)Nc3ccccc3Cl)n2)cc1 | > 39.8 µM (inactive)
